# Source: patent publication US20210062177A1, “Alginate Lyase” (Ocean University of China, priority 2019, published 2021)
# Like-named read-outs stand apart in the source and are kept apart here.
# What was measured:
# ScCD6 = assay: Effects of metal ions and chemical reagents on ScCD6 enzyme activity; assay type: biochemical, Streptomyces coelicolor A3(2); conditions: ScCD6 activity with metal ion/chemical reagent; for Relative enzyme activity %: control = 100.00
# Procedure: (§1) Using 0.3% (w/v) sodium alginate as the substrate, in a 200 μL reaction system, after reaction for 20 min and boiling 2 min for inactivating, DNS method was used to determine the content of reducing sugar in the product to characterize the enzyme activity.
# (§2) To determine the temperature stability, ScCD6 was incubated at 30° C., 40° C., 50° C. and 60° C., and its residual enzyme activity was determined by sampling at different times. When determining the stabilities of the enzyme under different pH, the enzyme was stored in buffer solution with pH 7.0, 8.0, 9.0 and 10.0 at 4° C., and the residual enzyme activity was determined by sampling at different times. […] In order to investigate the substrate specificity of ScCD6, sodium alginate, poly M and poly G were used as substrates and reacted at 40° C. for 20 min. The content of reducing sugar was determined by DNS method.
# [1] = Substrate specificity of ScCD6 (DNS method); assay type: biochemical; conditions: sodium alginate, poly M, poly G; 40° C. for 20 min
# Procedure: as §2
# [2] = Procedure: as §1, §2
# [3] = ScCD6 enzyme activity, reducing sugar by DNS method (optimum temperature and pH); assay type: biochemical
# Procedure: as §1, §2
# [4] = Product analysis of polysaccharide degradation by ScCD6 (HPLC); assay type: biochemical
# Procedure: Further, the concentration of substrate (sodium alginate, poly M, poly G) in the reaction can be 0.3% (w/v). An amount of added enzyme can be 0.6 U. A reaction can be carried out at 30° C., pH 7.0 for 12 hours. The obtained products can be used for HPLC tests.
# Using 0.3% (w/v) sodium alginate, poly M and poly G substrates, in a 200 μL reaction system, 0.6 U alginate lyase ScCD6 was added and reacted at 30° C. and pH 7.0 for 12 hours. The reaction product was boiled for 10 min and centrifuged at 10,000 rpm for 10 min to remove the proteins and other impurities in the system. The supernatant was collected and passed through a 0.22 μm filter membrane for HPLC test. The HPLC conditions were as follows: Superdex™ 30 Increase 30/100 Gel column, 0.2 M NH4HCO3 as mobile phase, flow rate of 0.4 mL/min, room temperature (˜25° C.), loading sample volume of 100 μL, UV detection at 235 nm.
Molecule,effect on the enzyme activity (ScCD6),Relative enzyme activity % (ScCD6),also measured
[Ba+2] [Ba^2+],promote the enzyme activity,108.96%,–
[Mg+2] [Mg^2+],inhibit the enzyme activity,91.64%,–
[K+] [K^+],little effects on the enzyme activity,98.28%,–
CCCCCCCCCCCCOS(=O)(=O)[O-].[Na+] [SDS],inhibit the enzyme activity,92.02%,–
[Mn+2] [Mn^2+],promote the enzyme activity,110.91%,–
[Zn+2] [Zn^2+],promote the enzyme activity,109.04%,–
[Na+] [Na^+],little effects on the enzyme activity,101.15%,–
[Cu+2] [Cu^2+],inhibit the enzyme activity,86.33%,–
[Co+2] [Co^2+],promote the enzyme activity,106.89%,–
[Ca+2] [Ca^2+],little effects on the enzyme activity,101.76%,–
O=C([O-])CN(CCN(CC(=O)[O-])CC(=O)O)CC(=O)O.[Na+].[Na+] [Na2EDTA],lose the enzyme activity,1.03%,–
[Fe+3] [Fe^3+],promote the enzyme activity,110.41%,–
[Ni+2] [Ni^2+],inhibit the enzyme activity,85.86%,–
"ScCD6: novel PL-6 family alginate lyase from Streptomyces coelicolor A3(2), 493 amino acids, SEQ ID NO: 1 (protein, Streptomyces coelicolor) MNRPRLSTYAAITVAAITIAALTTAASALASTGDTSSRTPSGNSTPQANATIVNVSSSTQLTTAMANAVAGQTIVLANGSYSIGKLNAKNGTSSAPITIMAAQQGKAIITGGQLEVLSSSYVTFSGLKWTNSNTLKITSSHHIRLTRNHFRLTESSSLKWIIIQGANSHHNRIDHNLFEEKHQLGNFITIDGSSTQQSQYDLIDYNHFRNIGPRATNEMEAIRVGWSAISKSDGFTTVENNLFENCDGDPEIVSVKSNANTVRYNTFRTSQGSVSLRHGNRSQVHGNFFFGGGKTGTGGVRVYGQDHKIYNNHFEGLTGTGYDAALQLDGGDVDTSGALSSHWRVYRATAVHNTFVNNVSNIEIGANYSLAPVDSLVADNIVVGSSGKLFNELKMPKNMTYAGNIGWPTGSATIGITTGVRTVNPLLAKQGEVYRLGTGSPAVNTASGSYSFLADDMDGQSRSGTADVGADELSTGTVVHKPLNSADVGISAP",–,–,"substrate specificity [1]: poly M specific alginate lyase; enzyme activity retained ([2]; 4° C. for 4 days at pH 7.0-10.0): 80%; enzyme activity retained ([2]; 30° C. for 24 hours): 80%; optimum pH ([3]; 50° C., pH 3.0-10.0, 0.3% (w/v) sodium alginate): 9.0; optimum reaction temperature ([3]; pH 7.0, temperature range of 30-100° C., 0.3% (w/v) sodium alginate): 50 °C; degradation of polysaccharides ([4]; 0.3% (w/v) sodium alginate, poly M, poly G, 0.6 U, 30° C., pH 7.0, 12 hours, HPLC): could degrade all three kinds of polysaccharides; mode of digestion ([4]; HPLC product analysis): endo-type alginate lyase; polymerization degree of unsaturated oligosaccharide products ([4]; degradation of sodium alginate): 2-8; unsaturated disaccharides as share of the total unsaturated oligosaccharide products ([4]; degradation of sodium alginate): about 70%"
